Results on three molecules are retold here after patent publication EP0918774B9, “ANDROGEN RECEPTOR MODULATOR COMPOUNDS AND METHODS” (LIGAND PHARMACEUTICALS INCORPORATED, priority 1996, dated 1997).

Assay [1] addresses T1, PR (Homo sapiens, UniProt P06401).
T1 sequence (P06401 1-933): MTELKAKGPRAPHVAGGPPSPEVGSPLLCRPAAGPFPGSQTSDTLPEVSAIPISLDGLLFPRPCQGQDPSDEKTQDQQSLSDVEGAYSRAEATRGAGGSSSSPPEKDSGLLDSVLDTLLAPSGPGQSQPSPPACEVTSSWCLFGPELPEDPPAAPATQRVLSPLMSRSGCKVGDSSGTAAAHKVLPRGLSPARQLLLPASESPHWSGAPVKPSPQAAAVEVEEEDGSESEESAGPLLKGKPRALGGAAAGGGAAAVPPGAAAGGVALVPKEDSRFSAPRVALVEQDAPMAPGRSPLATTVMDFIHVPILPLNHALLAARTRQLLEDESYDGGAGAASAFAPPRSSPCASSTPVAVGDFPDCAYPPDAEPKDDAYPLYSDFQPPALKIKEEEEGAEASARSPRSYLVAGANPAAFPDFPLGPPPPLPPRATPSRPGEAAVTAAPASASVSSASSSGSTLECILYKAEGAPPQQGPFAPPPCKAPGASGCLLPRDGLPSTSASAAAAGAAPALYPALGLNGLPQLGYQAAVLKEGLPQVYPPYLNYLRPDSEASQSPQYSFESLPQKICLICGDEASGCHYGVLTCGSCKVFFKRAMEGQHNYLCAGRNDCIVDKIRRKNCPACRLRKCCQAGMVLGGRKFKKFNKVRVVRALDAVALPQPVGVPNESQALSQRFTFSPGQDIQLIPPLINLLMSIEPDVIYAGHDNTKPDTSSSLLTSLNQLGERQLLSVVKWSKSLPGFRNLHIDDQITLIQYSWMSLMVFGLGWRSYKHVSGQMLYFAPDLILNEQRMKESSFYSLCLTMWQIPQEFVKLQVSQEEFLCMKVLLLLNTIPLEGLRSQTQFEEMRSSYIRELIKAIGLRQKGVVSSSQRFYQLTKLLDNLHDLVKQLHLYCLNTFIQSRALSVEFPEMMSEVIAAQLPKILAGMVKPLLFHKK
As to the kind of experiment: Co-transfection assay, PR agonist mode. Format: cell-based. Set-up: expressed in transfected cells; host or cells: CV-1 cells. As for the experimental part: (§1) CV-1 cells (African green monkey kidney fibroblasts) were cultured in the presence of Dulbecco's Modified Eagle Medium (DMEM) supplemented with 10% charcoal resinstripped fetal bovine serum then transferred to 96-well microtiter plates one day prior to transfection.
(§2) Three to four replicates were used for each sample.
(§3) After 40 hours, the cells were washed with PBS, lysed with a Triton X-100-based buffer and assayed for LUC and β-Gal activities using a luminometer or spectrophotometer, respectively. For each replicate, the normalized response (NR) was calculated as: LUC response/β-Gal rate where β-Gal rate = β-Gal•1x10^-5/β-Gal incubation time.

The target in assay [2] is T1, PR. As to the kind of experiment: cell-based.
The target of assay [3] is T2, ER (Homo sapiens, UniProt P03372).
T2 construct: expressed in transfected cells; host or cells: CV-1 cells
The assay can be described thus: Co-transfection assay, ER agonist mode. Format: cell-based. As for the experimental part: as §1, §2, §3

For another assay, the target named is T3, GR (Homo sapiens, UniProt P04150).
T3 sequence (P04150 1-777): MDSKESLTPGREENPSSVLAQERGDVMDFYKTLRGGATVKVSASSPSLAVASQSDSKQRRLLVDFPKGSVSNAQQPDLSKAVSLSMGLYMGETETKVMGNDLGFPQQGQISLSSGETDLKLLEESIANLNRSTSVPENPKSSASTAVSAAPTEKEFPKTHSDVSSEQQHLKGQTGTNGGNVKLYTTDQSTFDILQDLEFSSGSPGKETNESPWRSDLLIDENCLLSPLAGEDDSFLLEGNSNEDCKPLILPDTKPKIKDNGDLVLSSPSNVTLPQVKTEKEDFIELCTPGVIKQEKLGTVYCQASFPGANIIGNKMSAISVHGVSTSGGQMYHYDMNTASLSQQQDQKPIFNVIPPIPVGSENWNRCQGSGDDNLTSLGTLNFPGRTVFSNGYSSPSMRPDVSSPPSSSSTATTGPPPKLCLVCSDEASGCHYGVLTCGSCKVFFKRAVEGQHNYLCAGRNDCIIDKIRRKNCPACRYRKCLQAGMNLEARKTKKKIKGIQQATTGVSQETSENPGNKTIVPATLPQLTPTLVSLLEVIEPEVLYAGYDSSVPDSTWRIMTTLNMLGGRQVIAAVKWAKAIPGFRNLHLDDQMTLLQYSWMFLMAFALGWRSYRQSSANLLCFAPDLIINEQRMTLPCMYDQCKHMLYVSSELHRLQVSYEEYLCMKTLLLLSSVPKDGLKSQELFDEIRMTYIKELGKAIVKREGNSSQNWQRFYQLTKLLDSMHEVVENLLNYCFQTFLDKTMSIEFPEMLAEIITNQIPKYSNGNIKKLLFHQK
The assay can be described thus: cell-based. As for the experimental part:
as §1, §2, §3

Assay [4] addresses T2, ER. As to the kind of experiment: Co-transfection assay, ER antagonist mode. Format: cell-based. The protocol: as §1, §2, §3
In assay [5] the target is T4, human AR (Homo sapiens, UniProt P10275).
T4 construct: expressed in transfected cells; host or cells: CV-1 cells (African green monkey kidney fibroblasts), transient calcium phosphate transfection
T4 sequence (P10275 1-920): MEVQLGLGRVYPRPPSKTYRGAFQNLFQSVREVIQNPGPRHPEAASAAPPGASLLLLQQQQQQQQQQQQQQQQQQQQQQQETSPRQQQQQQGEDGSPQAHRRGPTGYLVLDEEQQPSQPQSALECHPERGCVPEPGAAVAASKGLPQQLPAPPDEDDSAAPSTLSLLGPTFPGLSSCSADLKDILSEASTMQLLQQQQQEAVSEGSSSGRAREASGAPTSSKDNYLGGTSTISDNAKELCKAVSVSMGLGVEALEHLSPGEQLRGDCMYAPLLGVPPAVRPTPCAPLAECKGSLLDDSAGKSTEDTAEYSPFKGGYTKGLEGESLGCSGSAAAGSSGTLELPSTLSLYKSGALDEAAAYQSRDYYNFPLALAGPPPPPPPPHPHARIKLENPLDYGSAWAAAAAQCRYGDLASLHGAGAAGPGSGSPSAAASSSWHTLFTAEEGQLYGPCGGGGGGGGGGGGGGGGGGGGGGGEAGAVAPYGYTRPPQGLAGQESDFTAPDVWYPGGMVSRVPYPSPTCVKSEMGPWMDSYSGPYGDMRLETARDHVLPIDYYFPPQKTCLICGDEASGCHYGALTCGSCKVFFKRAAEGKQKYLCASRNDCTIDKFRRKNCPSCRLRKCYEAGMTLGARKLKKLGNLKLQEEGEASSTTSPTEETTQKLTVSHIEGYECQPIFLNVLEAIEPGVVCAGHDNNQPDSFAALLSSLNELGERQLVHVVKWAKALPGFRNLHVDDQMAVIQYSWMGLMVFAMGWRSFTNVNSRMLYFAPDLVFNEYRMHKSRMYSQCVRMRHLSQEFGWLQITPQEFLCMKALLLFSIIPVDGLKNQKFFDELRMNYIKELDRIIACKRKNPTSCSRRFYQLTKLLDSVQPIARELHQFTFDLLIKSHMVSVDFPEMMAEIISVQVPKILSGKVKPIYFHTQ
As to the kind of experiment: cell-based. Format: cell-based.
From the text: The co-transfection assay provides a method for identifying functional agonists and partial agonists which mimic, or antagonists which inhibit, the effect of native hormones, and quantifying their activity for responsive IR proteins. In this regard, the co-transfection assay mimics an in vivo system in the laboratory. Importantly, activity in the co-transfection assay correlates very well with known in vivo activity, such that the co-transfection assay functions as a qualitative and quantitative predictor of a tested compounds in vivo pharmacology. See, e.g., T. Berger et al. 41 J. Steroid Biochem. Molec.
as §1
The reporter plasmid, MTV-LUC, contains the cDNA for firefly luciferase (LUC) under control of the mouse mammary tumor virus (MTV) long terminal repeat, a conditional promoter containing an androgen response element. See e.g, Berger et al. supra. In addition, pRS-β-Gal, coding for constitutive expression of E. colβ-galactosidase (β-Gal), was included as an internal control for evaluation of transfection efficiency and compound toxicity.
as §2, §3

Assay [6] addresses T4, human AR. The assay can be described thus: cell-based. Format: binding.

T2 sequence (P03372 whole entry): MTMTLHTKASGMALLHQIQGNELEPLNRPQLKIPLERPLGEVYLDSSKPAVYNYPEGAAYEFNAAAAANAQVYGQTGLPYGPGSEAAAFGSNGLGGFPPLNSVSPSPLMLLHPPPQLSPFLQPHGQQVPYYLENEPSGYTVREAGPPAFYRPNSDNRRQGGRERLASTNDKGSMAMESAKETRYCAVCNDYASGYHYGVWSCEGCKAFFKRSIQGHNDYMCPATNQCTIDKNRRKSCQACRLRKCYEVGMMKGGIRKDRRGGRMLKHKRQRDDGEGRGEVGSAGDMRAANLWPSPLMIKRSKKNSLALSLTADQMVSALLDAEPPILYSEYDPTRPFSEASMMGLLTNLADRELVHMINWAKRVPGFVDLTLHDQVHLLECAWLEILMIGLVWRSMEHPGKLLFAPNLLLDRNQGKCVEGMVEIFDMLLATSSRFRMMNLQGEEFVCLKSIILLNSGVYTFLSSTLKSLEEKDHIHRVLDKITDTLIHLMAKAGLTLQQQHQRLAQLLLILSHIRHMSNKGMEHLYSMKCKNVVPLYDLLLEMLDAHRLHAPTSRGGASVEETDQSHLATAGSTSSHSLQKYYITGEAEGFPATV

Take `C[C@]12CCC(=O)C[C@@H]1CC[C@@H]1[C@@H]2CC[C@]2(C)[C@@H](O)CC[C@@H]12` [DHT, dihydrotestosterone, reference compound]: at PR [1], the concentration for a half-maximal effect (EC50) (in general, the concentration giving half of the maximal effect) is more than 10 µM. Also, it took 1.8 µM to reach half-maximal inhibition at PR [2] (IC50).
Consider `Cn1c(=O)cc(C(F)(F)F)c2cc3c(cc21)N1CCCC1(C)CC3` (racemic) [Compound 103, (R/S)-6,7,7a,11-Tetrahydro-1,7a-dimethyl-4-trifluoromethyl-2-pyridono[5,6-g]pyrrolidino[1,2-a]quinoline], for which the EC50 at ER [3] and at PR [1] was more than 10 µM throughout. Moreover, the IC50 against GR and against ER [4] was more than 10 µM each time.
For `CC1(C)CCc2cc3c(C(F)(F)F)c(F)c(=O)[nH]c3cc2N1` [Compound 105, 7-Fluoro-1,2,3,4-tetrahydro-2,2-dimethyl-6-trifluoromethyl-8-pyridono[5,6-g]quinoline], the EC50 on ER [3] and on PR [1] was more than 10 µM in each case. Besides, at human AR [5] (% of maximal inhibition, fixed DHT at EC50, na = not active), the “AR Antagonist CV-1 Cells Efficacy (%)” value is listed as 31%. Besides, the “AR agonist/antagonist profile (in words)” value at human AR [5] (co-transfection assay, summary of Tables 1-2) was “mixed AR agonists/antagonists”. Besides, the “AR Agonist CV-1 Cells Efficacy (%)” value at human AR [5] (percent maximal response relative to reference agonist DHT, na = not active) amounted to 48%. For the same molecule, the affinity at human AR [6], expressed as Ki, was 0.026 µM. In addition, the concentration for half-maximal inhibition (IC50) – broadly, the concentration needed to halve the response being measured – against GR is more than 10 µM; against ER [4] it was 0.034 µM.
